Experimental data as given in US20120190635A1, “SELECTIVE OXIDATION OF C-H BONDS OF MODIFIED SUBSTRATES BY P450 MONOOXYGENASE” (THE REGENTS OF THE UNIVERSITY OF MICHIGAN, priority 2009, published 2012).
In brackets after ≈: the same amount, converted by molar mass.

Tests used:
[1] = system: Kocuria rhizophila ATCC9341; test: antibacterial MIC, microtiter dilution; conditions: for MIC: Kocuria rhizophila, ATCC9341, read-out: Minimal inhibitory concentration; for Minimal inhibitory concentration: Kocuria rhizophila ATCC9341, Nutrient broth
Acinetobacter baumannii = test: antibacterial MIC, microtiter dilution; conditions: for MIC: read-out: Minimal inhibitory concentration; for Minimal inhibitory concentration: Mueller Hinten
S. aureus NorA = test: antibacterial MIC, microtiter dilution; conditions: for MIC: Staphylococcus aureus, read-out: Minimal inhibitory concentration; for Minimal inhibitory concentration: S. aureus 8325 NorA disruption mutant, Mueller Hinten
[2] = system: Staphylococcus aureus ATCC6538P; test: antibacterial MIC, microtiter dilution; conditions: for MIC: Staphylococcus aureus, ATCC6538P, read-out: Minimal inhibitory concentration; for Minimal inhibitory concentration: Staphylococcus aureus ATCC6538P, LB
[3] = system: Bacillus subtillis DHS5333; test: antibacterial MIC, microtiter dilution; conditions: for MIC: Bacillus, DHS5333, read-out: Minimal inhibitory concentration; for Minimal inhibitory concentration: Bacillus subtillis DHS5333, LB
[4] = system: Multidrug resistant S. aureus (MRSA); test: antibacterial MIC, microtiter dilution; conditions: for MIC: Staphylococcus aureus, MRSA, read-out: Minimal inhibitory concentration; for Minimal inhibitory concentration: Multidrug resistant S. aureus (MRSA), Mueller Hinten
Escherichia. coli TolC = test: antibacterial MIC, microtiter dilution; conditions: Mueller Hinten; for MIC: Escherichia coli, read-out: Minimal inhibitory concentration, E. coli W3110 TolC disruption mutant; for Minimal inhibitory concentration: E. coli W3110 TolC disruption mutant
Deinococcus radiodurans = test: antibacterial MIC, microtiter dilution; conditions: 60 h; for Minimal inhibitory concentration: Special media, 30° C.; for MIC: read-out: Minimal inhibitory concentration, Deinococcus radiodurans, Special media, 30° C.
PikCD50N-RhFRED = PikCD50N-RhFRED (Streptomyces venezuelae, UniProt O87605, D50N); type: biochemical; conditions: for Number of products: Table 1
Sequence of PikCD50N-RhFRED (O87605 other isoform, or with tags, fused parts or gaps D50N): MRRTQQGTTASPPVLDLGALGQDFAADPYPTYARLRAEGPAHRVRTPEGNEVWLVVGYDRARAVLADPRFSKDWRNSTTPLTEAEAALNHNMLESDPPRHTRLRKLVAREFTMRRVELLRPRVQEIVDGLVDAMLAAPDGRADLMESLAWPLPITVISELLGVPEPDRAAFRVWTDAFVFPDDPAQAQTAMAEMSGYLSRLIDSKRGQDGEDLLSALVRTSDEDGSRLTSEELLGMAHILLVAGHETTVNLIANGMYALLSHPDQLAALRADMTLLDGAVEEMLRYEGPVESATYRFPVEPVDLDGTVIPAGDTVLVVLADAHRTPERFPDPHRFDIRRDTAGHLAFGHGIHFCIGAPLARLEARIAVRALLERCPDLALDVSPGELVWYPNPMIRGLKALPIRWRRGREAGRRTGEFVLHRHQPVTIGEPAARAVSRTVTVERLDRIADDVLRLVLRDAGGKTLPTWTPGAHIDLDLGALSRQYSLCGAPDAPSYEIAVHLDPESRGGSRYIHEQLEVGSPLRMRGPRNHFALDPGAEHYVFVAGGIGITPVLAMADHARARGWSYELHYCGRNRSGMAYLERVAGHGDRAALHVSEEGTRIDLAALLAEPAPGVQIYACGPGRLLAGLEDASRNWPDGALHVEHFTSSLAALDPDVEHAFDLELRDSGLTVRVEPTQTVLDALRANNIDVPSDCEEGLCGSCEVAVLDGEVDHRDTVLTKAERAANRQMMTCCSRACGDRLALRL

Row | Compound | MIC [1] | MIC (Acinetobacter baumannii) | MIC (S. aureus NorA) | MIC [2] | MIC [3] | MIC [4] | MIC (Escherichia. coli TolC) | Minimal inhibitory concentration (Deinococcus radiodurans) | Minimal inhibitory concentration [1] | Minimal inhibitory concentration (Acinetobacter baumannii) | Minimal inhibitory concentration (S. aureus NorA) | Minimal inhibitory concentration [2] | Minimal inhibitory concentration [3] | Minimal inhibitory concentration [4] | Minimal inhibitory concentration (Escherichia. coli TolC) | MIC (Deinococcus radiodurans) | Number of products (PikCD50N-RhFRED; PikCD50N-RhFRED) | yield and selectivity (number of product peaks) relative to 12 (PikCD50N-RhFRED; PikCD50N-RhFRED) | hydroxylation by PikC / ability to serve as substrate, in words (PikCD50N-RhFRED)
1 | C[C@@H]1C[C@H](N(C)C)[C@@H](O)[C@H](OC2CCCCCCC(O)CCCCC2)O1 (single isomer, unassigned) [Compound 8-C7OH-a] | > 400 µM | > 400 µM | > 400 µM | > 400 µM | > 400 µM | > 400 µM | > 400 µM | 400 µM (≈ 149 µg/mL) | – | – | – | – | – | – | – | – | – | – | –
2 | C[C@@H]1C[C@H](N(C)C)[C@@H](O)[C@H](OC2CCCCCCC(O)CCCCC2)O1 (single isomer, unassigned) [Compound 8-C7OH-b] | – | – | – | – | – | – | – | 100 µM (≈ 37.2 µg/mL) | >400 µM | >400 µM | >400 µM | >400 µM | >400 µM | >400 µM | 400 µM (≈ 149 µg/mL) | – | – | – | –
3 | CC[C@H]1OC(=O)[C@H](C)[C@@H](O[C@@H]2OC(C)CC(C)C2C)[C@@H](C)C[C@@H](C)C(=O)/C=C/[C@H]1C (stereo partly drawn) [Compound 1, YC-17, reference compound] | 100 µM (≈ 42.3 µg/mL) | > 400 µM | 100 µM (≈ 42.3 µg/mL) | 100 µM (≈ 42.3 µg/mL) | 100 µM (≈ 42.3 µg/mL) | > 400 µM | 100 µM (≈ 42.3 µg/mL) | – | – | – | – | – | – | – | – | 400 µM (≈ 169 µg/mL) | 2 | – | –
4 | CC[C@H]1OC(=O)[C@H](C)[C@@H](O[C@@H]2O[C@H](C)C[C@H](N(C)C)[C@H]2O)[C@@H](C)C[C@@H](C)C(=O)/C=C/[C@]1(C)O [Compound 2, methymycin, reference compound] | 50 µM (≈ 23.5 µg/mL) | > 400 µM | 100 µM (≈ 47 µg/mL) | 100 µM (≈ 47 µg/mL) | 100 µM (≈ 47 µg/mL) | > 400 µM | 50 µM (≈ 23.5 µg/mL) | – | – | – | – | – | – | – | – | 200 µM (≈ 93.9 µg/mL) | – | – | –
5 | CC[C@H]1OC(=O)[C@H](C)C(=O)[C@H](C)[C@@H](O[C@@H]2O[C@H](C)C[C@H](N(C)C)[C@H]2O)[C@@H](C)C[C@@H](C)C(=O)/C=C/[C@H]1C [Compound 4, narbomycin, reference compound] | – | – | – | – | – | – | – | 100 µM (≈ 51 µg/mL) | <3.1 µM | >400 µM | 3.1 µM (≈ 1.58 µg/mL) | 6.2 µM (≈ 3.16 µg/mL) | <3.1 µM | >400 µM | 25 µM (≈ 12.7 µg/mL) | – | – | – | –
6 | CC[C@H]1OC(=O)[C@H](C)C(=O)[C@H](C)[C@@H](O[C@@H]2O[C@H](C)C[C@H](N(C)C)[C@H]2O)[C@@H](C)C[C@@H](C)C(=O)/C=C/[C@]1(C)O [Compound 5, pikromycin, reference compound] | – | – | – | – | – | – | – | 100 µM (≈ 52.6 µg/mL) | 6.2 µM (≈ 3.26 µg/mL) | >400 µM | 12.5 µM (≈ 6.57 µg/mL) | 25 µM (≈ 13.1 µg/mL) | 12.5 µM (≈ 6.57 µg/mL) | >400 µM | 100 µM (≈ 52.6 µg/mL) | – | – | – | –
7 | C[C@@H]1C[C@H](N(C)C)[C@@H](O)[C@H](OC2CCCCCCCC(O)CCCC2)O1 (stereo partly drawn) [Compound 8-C6OH-a, (2S,3R,4S,6R)-4-(dimethylamino)-2-(6-hydroxycyclotridecyloxy)-6-methyltetrahydro-2H-pyran-3-ol] | > 400 µM | > 400 µM | > 400 µM | > 400 µM | > 400 µM | > 400 µM | > 400 µM | – | – | – | – | – | – | – | – | > 400 µM | – | – | –
8 | C[C@@H]1C[C@H](N(C)C)[C@@H](O)[C@H](OC2CCCCCCCC(O)CCCC2)O1 (stereo partly drawn) [Compound 8-C6OH-b, (2S,3R,4S,6R)-4-(dimethylamino)-2-(6-hydroxycyclotridecyloxy)-6-methyltetrahydro-2H-pyran-3-ol] | – | – | – | – | – | – | – | 400 µM (≈ 149 µg/mL) | >400 µM | >400 µM | >400 µM | >400 µM | >400 µM | >400 µM | >400 µM | – | – | – | –
9 | CC1CC(N(C)C)C(O)C(OC2CCCCC2)O1 (stereo not drawn) [Compound 13, 2-(Cyclohexyloxy)-4-(dimethylamino)-6-methyltetrahydro-2H-pyran-3-ol] | > 400 µM | > 400 µM | > 400 µM | > 400 µM | > 400 µM | > 400 µM | > 400 µM | – | – | – | – | – | – | – | – | > 400 µM | 0 | – | –
10 | CC1CC(N(C)C)C(O)C(OC2CCCC3CCCCC32)O1 (stereo not drawn) [Compound 14, 2-(Decahydronaphthalen-1-yloxy)-4-(dimethylamino)-6-methyltetrahydro-2H-pyran-3-ol] | > 400 µM | > 400 µM | > 400 µM | > 400 µM | > 400 µM | > 400 µM | > 400 µM | – | – | – | – | – | – | – | – | > 400 µM | 0 | – | –
11 | CCCCC#CCOC1OC(C)CC(N(C)C)C1O (stereo not drawn) [Compound 16, 4-(Dimethylamino)-2-(hept-2-ynyloxy)-6-methyltetrahydro-2H-pyran-3-ol] | – | – | – | – | – | – | – | – | – | – | – | – | – | – | – | – | 0 | – | –
12 | C#CCCCCCCCCCOC1OC(C)CC(N(C)C)C1O (stereo not drawn) [Compound 18, 4-(dimethylamino)-6-methyl-2-(undec-10-ynyloxy)-tetrahydro-2H-pyran-3-ol] | > 400 µM | > 400 µM | > 400 µM | > 400 µM | > 400 µM | > 400 µM | 400 µM (≈ 130 µg/mL) | – | – | – | – | – | – | – | – | > 400 µM | – | – | –
13 | CN(C)CCCOC1CCCCCCCCCCCCCC1 [Compound 24, 3-(cyclopentadecyloxy)-N,N-dimethylpropan-1-amine] | – | – | – | – | – | – | – | – | – | – | – | – | – | – | – | – | – | improved compared to 12 | –
14 | OC1CCCCCCCCCCC1 [Cyclododecanol, reference compound] | > 400 µM | > 400 µM | > 400 µM | > 400 µM | > 400 µM | > 400 µM | > 400 µM | – | – | – | – | – | – | – | – | > 400 µM | – | – | unable to serve as a substrate
15 | OC1CCCCCCCCCCCCCC1 [Cyclopentadecanol, reference compound] | > 400 µM | > 400 µM | > 400 µM | > 400 µM | > 400 µM | > 400 µM | > 400 µM | – | – | – | – | – | – | – | – | > 400 µM | – | – | –
16 | OC1CCCCCCCCCCCC1 [Cyclotridecanol, reference compound] | > 400 µM | > 400 µM | > 400 µM | > 400 µM | > 400 µM | > 400 µM | > 400 µM | – | – | – | – | – | – | – | – | > 400 µM | – | – | –
17 | CC[C@H]1OC(=O)[C@H](C)[C@@H](O[C@H]2C[C@@](C)(OC)[C@@H](O)[C@H](C)O2)[C@H](C)[C@@H](O[C@@H]2O[C@H](C)C[C@H](N(C)C)[C@H]2O)[C@](C)(O)C[C@@H](C)C(=O)[C@H](C)[C@@H](O)[C@]1(C)O [Erythromycin, reference compound] | < 0.8 µM | 25 µM (≈ 18.3 µg/mL) | < 0.8 µM | < 0.8 µM | < 0.8 µM | > 100 µM | < 0.8 µM | – | – | – | – | – | – | – | – | 6.2 µM (≈ 4.55 µg/mL) | – | – | –
